Results on eight substances are retold here after PMC10835127, “Viruses traverse the human proteome through peptide interfaces that can be biomimetically leveraged for drug discovery” (Proceedings of the National Academy of Sciences of the …, 2024).

The subject of one assay is HIV1 strain NL4-3. The assay is classed as cell-based. The conditions noted are these: normalized mean of HIV1 replication readout.
Another assay concerns HCV replicon. The assay is classed as cell-based. The conditions noted are these: for HCV Norm MEAN: normalized mean of HCV replicon readout. On the technique in general: A replicon is a self-replicating genome or part of one, used to study replication in cells.
For assay [1], the system named is F. novicida (strain U112). The assay is classed as cell-based.
The next assay concerns influenza A H1N1 virus. The conditions noted are these: 48 hr post-treatment, A549.
The subject of the next assay is EBV. The conditions noted are these: normalized mean of EBV replication readout.

Read-outs that look alike come from different tables or passages of the source.

As for PVQLSYYD [CPEP144], the “HIV1 Norm MEAN” value with HIV1 strain NL4-3 amounted to 1.139. Besides, in the assay on HCV replicon (20 µM peptide, Huh7, replicon luciferase), the “activity in HCV screen (in words)” value is recorded as “peptide inhibiting HCV”. In the assay with HCV replicon, the “HCV Norm MEAN” value is 0.1325. Moreover, the “Francisella novicida Norm AUC” value in assay [1] came out at 1.621. Moreover, the “Neuraminidase activity normalized to vehicle” value was 0,7318 in the assay on influenza A H1N1 virus (200 µM peptide); 1,0036 in the assay with influenza A H1N1 virus (0,823 µM peptide); 0,9081 with influenza A H1N1 virus (22,2 µM peptide); 0,8026 in the assay with influenza A H1N1 virus (2,4691 µM peptide); 0,9626 in the assay on influenza A H1N1 virus (7,4074 µM peptide); 0,8536 in the assay on influenza A H1N1 virus (66,6667 µM peptide). Besides, the “EBV Norm MEAN” value in the assay on EBV is given as 1.072.
Consider PYQLT [CPEP58], for which the “HIV1 Norm MEAN” value with HIV1 strain NL4-3 amounted to 1.506. The “HCV Norm MEAN” value in the assay with HCV replicon stood at 0.1961. For the same substance, the “Francisella novicida Norm AUC” value in assay [1] came out at 0.486. Also, the “Neuraminidase activity normalized to vehicle” value in the assay with influenza A H1N1 virus (200 µM peptide) is 0,7155; with influenza A H1N1 virus (0,823 µM peptide), 0,7664; with influenza A H1N1 virus (22,2 µM peptide), 0,8252; in the assay with influenza A H1N1 virus (2,4691 µM peptide), 0,7115; in the assay with influenza A H1N1 virus (7,4074 µM peptide), 0,806; in the assay on influenza A H1N1 virus (66,6667 µM peptide), 0,8444. In addition, in the assay with EBV, the “EBV Norm MEAN” value is 0.8535.
For the substance QILVESPTVLESGTKE [CPEP80], the “HIV1 Norm MEAN” value in the assay on HIV1 strain NL4-3 (peptide screen) was determined as 0.6346. In addition, the “HCV Norm MEAN” value in the assay with HCV replicon (peptide screen) was found to be 0.9076. The “Francisella novicida Norm AUC” value in assay [1] is recorded as 0.9366. Further, the “Neuraminidase activity normalized to vehicle” value is on record as 0,8685 in the assay with influenza A H1N1 virus (200 µM peptide); 1,0444 in the assay on influenza A H1N1 virus (0,823 µM peptide); 1,1492 with influenza A H1N1 virus (22,2 µM peptide); 1,0137 in the assay with influenza A H1N1 virus (2,4691 µM peptide); 1,0974 with influenza A H1N1 virus (7,4074 µM peptide); 0,9708 in the assay on influenza A H1N1 virus (66,6667 µM peptide). For the same substance, the “EBV Norm MEAN” value in the assay with EBV (peptide screen) amounted to 0.8761.
QRRGRTGRG [CPEP40]: the “HIV1 Norm MEAN” value with HIV1 strain NL4-3 was 0.4037. Moreover, in the assay with HCV replicon, the “HCV Norm MEAN” value is given as 0.7133. In addition, the “Francisella novicida Norm AUC” value in assay [1] is 1.732. The “Neuraminidase activity normalized to vehicle” value is listed as 0,9281 in the assay on influenza A H1N1 virus (200 µM peptide); 1,0647 in the assay with influenza A H1N1 virus (0,823 µM peptide); 1,004 with influenza A H1N1 virus (22,2 µM peptide); 0,9944 with influenza A H1N1 virus (2,4691 µM peptide); 1,0761 with influenza A H1N1 virus (7,4074 µM peptide); 0,9318 in the assay with influenza A H1N1 virus (66,6667 µM peptide). In addition, in the assay on EBV, the “EBV Norm MEAN” value is given as 0.7195.
Consider RDVLCLRPVGAESR [CPEP94], for which the “HIV1 Norm MEAN” value in the assay on HIV1 strain NL4-3 (peptide screen) is 0.3822. The “HCV Norm MEAN” value with HCV replicon (peptide screen) is reported as 0.7235. Also, in assay [1], the “Francisella novicida Norm AUC” value came to 1.032. For the same substance, the “Neuraminidase activity normalized to vehicle” value was 0,3954 in the assay on influenza A H1N1 virus (200 µM peptide); 0,7797 in the assay on influenza A H1N1 virus (0,823 µM peptide); 0,8926 in the assay on influenza A H1N1 virus (22,2 µM peptide); 0,8827 in the assay on influenza A H1N1 virus (2,4691 µM peptide); 0,8423 with influenza A H1N1 virus (7,4074 µM peptide); 0,695 in the assay on influenza A H1N1 virus (66,6667 µM peptide). Also, the “EBV Norm MEAN” value in the assay with EBV (peptide screen) came to 0.9161.
For RHFPRIW [CPEP146], in the assay with HIV1 strain NL4-3, the “HIV1 Norm MEAN” value was 0.9815. Also, in the assay with HCV replicon, the “HCV Norm MEAN” value was 0.2243. The “Francisella novicida Norm AUC” value in assay [1] was found to be 1.892. The “Neuraminidase activity normalized to vehicle” value was 0,7481 with influenza A H1N1 virus (200 µM peptide); 0,8163 in the assay with influenza A H1N1 virus (0,823 µM peptide); 0,8498 in the assay on influenza A H1N1 virus (22,2 µM peptide); 0,7842 with influenza A H1N1 virus (2,4691 µM peptide); 0,7775 with influenza A H1N1 virus (7,4074 µM peptide); 0,9221 with influenza A H1N1 virus (66,6667 µM peptide). The “EBV Norm MEAN” value in the assay with EBV came out at 1.3564.
As for RHIICHGGVI [CPEP133], the “HIV1 Norm MEAN” value in the assay on HIV1 strain NL4-3 came out at 7.136. Besides, the “HCV Norm MEAN” value in the assay on HCV replicon is listed as 0.3927. Besides, in assay [1], the “Francisella novicida Norm AUC” value is listed as 0.5145. Further, the “Neuraminidase activity normalized to vehicle” value in the assay with influenza A H1N1 virus (200 µM peptide) is reported as 0,0947; in the assay on influenza A H1N1 virus (0,823 µM peptide) it was 0,951; with influenza A H1N1 virus (22,2 µM peptide) it was 0,4954; in the assay on influenza A H1N1 virus (2,4691 µM peptide), 0,9186; in the assay with influenza A H1N1 virus (7,4074 µM peptide), 0,811; with influenza A H1N1 virus (66,6667 µM peptide), 0,1797. Moreover, the “EBV Norm MEAN” value in the assay on EBV amounted to 1.143.
With RKSASMS [CPEP82], in the assay with HIV1 strain NL4-3, the “HIV1 Norm MEAN” value was found to be 1.975. The “HCV Norm MEAN” value in the assay with HCV replicon was determined as 0.267. For the same substance, the “Francisella novicida Norm AUC” value in assay [1] was found to be 1.194. In addition, the “Neuraminidase activity normalized to vehicle” value with influenza A H1N1 virus (200 µM peptide) is 0,8479; with influenza A H1N1 virus (0,823 µM peptide), 0,801; in the assay on influenza A H1N1 virus (22,2 µM peptide), 0,7544; with influenza A H1N1 virus (2,4691 µM peptide), 0,6968; in the assay on influenza A H1N1 virus (7,4074 µM peptide), 0,5924; with influenza A H1N1 virus (66,6667 µM peptide), 0,9164. In addition, the “EBV Norm MEAN” value in the assay on EBV was determined as 1.372.
